From PubChem BioAssay (NCI)
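In this assay, cells in 96-well plates receive the compound at five concentrations for 48 hours. Endpoints are linearly interpolated between the surrounding concentrations. Abbreviation: GI50, concentration required for 50% inhibition of growth. TGI denotes the concentration required for complete inhibition of growth.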

Columns and labels:
Assay in all cases: DTP human tumour cell line panel, 48 h
DMS 273 small cell lung = tested on: DMS 273 small cell lung
HCT-15 colon = tested on: HCT-15 colon
HL-60(TB) leukemia = tested on: HL-60(TB) leukemia
KM20L2 colon = tested on: KM20L2 colon
MOLT-4 leukemia = tested on: MOLT-4 leukemia
NCI-H23 lung = tested on: NCI-H23 lung
OVCAR-3 ovarian = tested on: OVCAR-3 ovarian
SK-MEL-28 melanoma = tested on: SK-MEL-28 melanoma
SNB-75 CNS = tested on: SNB-75 CNS
T-47D breast = tested on: T-47D breast
TK-10 renal = tested on: TK-10 renal

| SMILES | TGI (DMS 273 small cell lung) [µM] | TGI (HCT-15 colon) [µM] | TGI (HL-60(TB) leukemia) [µM] | TGI (KM20L2 colon) [µM] | TGI (MOLT-4 leukemia) [µM] | TGI (NCI-H23 lung) [µM] | TGI (OVCAR-3 ovarian) [µM] | TGI (SK-MEL-28 melanoma) [µM] | TGI (SNB-75 CNS) [µM] | GI50 (HCT-15 colon) [µM] | GI50 (HL-60(TB) leukemia) [µM] | GI50 (MOLT-4 leukemia) [µM] | GI50 (NCI-H23 lung) [µM] | GI50 (SK-MEL-28 melanoma) [µM] | TGI (T-47D breast) [µM] | GI50 (TK-10 renal) [µM] | TGI (TK-10 renal) [µM] |
| --- | --- | --- | --- | --- | --- | --- | --- | --- | --- | --- | --- | --- | --- | --- | --- | --- | --- |
| CSc1nc(NC2OCC(O)C(O)C2O)c(N)c(=O)n1C (stereo not drawn) | > 100 | > 100 | > 100 | > 100 | > 100 | > 100 | > 100 | > 100 | > 100 | – | – | – | – | – | – | – | – |
| COC(=O)c1nc(-c2ccc3c(n2)C(=O)C(N)=C(OC)C3=O)c(N)c(-c2ccc(OC)c(OC)c2O)c1C | 1.46 | 2.68 | 6.32 | 5.97 | – | 1.38 | 1.66 | 2.77 | 3.73 | – | – | – | – | – | – | – | – |
| Cc1cccc2nc3cccc(C(=O)NCCC[N+](C)(CCCNC(=O)c4cccc5nc6cccc(C)c6nc45)Cc4c([N+](=O)[O-])ncn4C)c3nc12 | – | > 1100 | – | – | – | > 1100 | > 1100 | > 1100 | > 1100 | 13.6 | 48.6 | 8.38 | 370 | 403 | > 1100 | 118 | > 1100 |
| O=c1c2ccccc2n2nnc3ccc(NCCCNCCNCCCNc4ccc5nnn6c7ccccc7c(=O)c4c56)c1c32 | – | > 26.4 | 23.5 | – | > 21.2 | 15.3 | 16.8 | > 39.3 | > 27.2 | – | – | – | – | – | > 50 | – | 19 |
| CCOC(=O)C(NC(=O)CC(C)C)(Nc1ccc(C(F)(F)F)cc1)C(F)(F)F (stereo not drawn) | – | > 100 | 59.9 | – | > 100 | > 100 | > 100 | > 100 | 60.9 | – | – | – | – | – | 81.8 | – | > 100 |
| N/N=C1/C(=N/O)CCc2nonc21 | – | > 100 | > 100 | – | > 100 | > 100 | > 100 | > 100 | > 100 | – | – | – | – | – | > 100 | – | > 100 |
| C=CC(C)(C)N[C@@H](C(=O)N1CCC[C@H]1c1nc(-c2nc(C(=O)OCC=C(C)C)c(C)o2)c(C)o1)C(C)C | – | 51.5 | 93.9 | – | 36.9 | 48.1 | 59.5 | 38.2 | > 100 | – | – | – | – | – | 73.4 | – | 63.2 |
| C=CCN(c1cc(OCc2ccccc2)c(NC(C)=O)cc1[N+](=O)[O-])S(C)(=O)=O | – | > 100 | > 100 | – | > 100 | 32.3 | > 100 | > 100 | 43.6 | – | – | – | – | – | > 100 | – | > 100 |
| O=C(Nc1nnc(-c2ccccc2)o1)C(SC(=S)N1CCOCC1)c1ccccc1 (stereo not drawn) | – | > 100 | 36.3 | – | 83.1 | 69 | 79.7 | > 100 | > 100 | – | – | – | – | – | > 100 | – | > 100 |
| O=C(NCCCCNCCCNC(=O)c1ccccc1)c1ccccc1 | – | > 100 | > 100 | – | > 100 | > 100 | > 100 | > 100 | > 100 | – | – | – | – | – | > 100 | – | > 100 |
| COCN1CCN=c2c1c1c3c(c4ccccc4n23)CCC1 | – | > 100 | > 100 | – | > 100 | > 100 | > 100 | > 100 | > 100 | – | – | – | – | – | > 100 | – | > 100 |
| COc1ccc(C[C@H](N)C(=O)N2C[C@H](CO)C[C@H](n3cnc4c(N(C)C)ncnc43)C2)cc1 | > 100 | > 100 | > 100 | > 100 | > 100 | > 100 | > 100 | > 100 | – | – | – | – | – | – | – | – | > 100 |
| O=C(OCCN1CCCCC1)C(c1ccccc1)C1(O)CCSCC1 (stereo not drawn) | – | > 100 | > 100 | – | > 100 | > 100 | > 100 | > 100 | > 100 | – | – | – | – | – | > 100 | – | > 100 |
| OCC(O)C1OC2CC1Nc1ccccc1N2 (stereo not drawn) | – | > 100 | > 100 | – | > 100 | > 100 | > 100 | > 100 | > 100 | – | – | – | – | – | > 100 | – | > 100 |
| O=c1[nH]c2cc3cccnc3c(Cl)c2nc1C(F)(F)F | – | > 100 | > 100 | – | 83.2 | > 100 | > 100 | > 100 | 90.1 | – | – | – | – | – | 88.1 | – | > 100 |
